# Patent US20100204203A1, “Chemical Compounds 637: Pyridopyrimidinediones as PDE4 Inhibitors” (priority 2007, published 2010)
# Counter-ions that a name gives are not always drawn.
# Molecular target: T1, recombinant Human Phosphodiesterase B2 (PDE4B2) (Homo sapiens, UniProt Q07343)
# Test: Human Phosphodiesterase B2 Alpha Screen Assay
# Format: biochemical
# Conditions: Alpha Screen cAMP kit; 15 min preincubation, 60 min reaction at room temperature; Xlfit model 205; read-out: PDE4B2 pIC50 (converted)
# Method: Human Phosphodiesterase B2 Alpha Screen Assay
# The assay uses recombinant Human Phosphodiesterase B2 (PDE4B2) produced in house (PrAZL0133), stored at −20° C. The substrate uses cAMP, part of the Alpha Screen cAMP kit (Perkin Elmer, Cat# 6760625M), stored at 4° C. The Alpha Screen kit also includes biotinylated cAMP, acceptor and donor beads.
# The assay additions were as follows: Test compounds and controls were added to white 384-well flat-bottom plates (Greiner, Cat#781075), 0.2 μl in 100% DMSO, followed by 10 μl PDE4B2 in reaction buffer. The reaction buffer constitution was: 50 mM Tris (pH 7.5), 8.3 mM MgCl2, 1.7 mM EGTA and 0.01% (w/v) Brij®35. The enzyme and the compounds were incubated at room temperature for 15 minutes. Then 10 μl cAMP in reaction buffer was added. The assay was stopped after 60 minutes incubation at room temperature by adding 10 μl acceptor beads in detection buffer with 40 mM EDTA. The detection buffer constitution was: 5 mM Tris (pH 7.5), 0.1% (w/v) BSA and 0.1% (v/v) Tween 20. This addition followed by an addition of 10 μl donor beads in detection buffer, with biotinylated cAMP. The plates were then incubated, dark at room temperature, for 5 hours followed by measurement on a Fusion™-α analyser. pIC50 values (presented in Table 14) were determined using Xlfit curve fitting using model 205.
# T1 sequence (Q07343 1-564 isoform Q07343-2): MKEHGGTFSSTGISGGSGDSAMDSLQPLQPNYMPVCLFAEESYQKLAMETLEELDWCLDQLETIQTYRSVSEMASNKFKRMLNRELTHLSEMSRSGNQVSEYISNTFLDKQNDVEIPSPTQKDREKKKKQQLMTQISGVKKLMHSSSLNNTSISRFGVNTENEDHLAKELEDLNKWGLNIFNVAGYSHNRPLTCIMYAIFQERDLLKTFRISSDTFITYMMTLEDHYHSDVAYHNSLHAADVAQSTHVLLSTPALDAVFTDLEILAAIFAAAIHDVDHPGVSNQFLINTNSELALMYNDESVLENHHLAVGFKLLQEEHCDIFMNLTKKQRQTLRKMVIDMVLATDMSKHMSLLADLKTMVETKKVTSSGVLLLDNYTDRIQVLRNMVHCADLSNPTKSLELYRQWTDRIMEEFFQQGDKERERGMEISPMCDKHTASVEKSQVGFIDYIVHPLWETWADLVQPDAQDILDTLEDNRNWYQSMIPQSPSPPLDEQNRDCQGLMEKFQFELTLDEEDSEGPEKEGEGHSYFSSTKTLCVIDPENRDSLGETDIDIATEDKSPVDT
row,IC50 [pM],Compound
1,3160,"O=C(N[C@H]1CC[C@@H](n2c(=O)c3cc(F)cnc3n(Cc3ccc(F)cc3)c2=O)CC1)c1cn2ccccc2n1 [Example 9, N-{cis-4-[6-fluoro-1-(4-fluorobenzyl)-2,4-dioxo-1,4-dihydropyrido[2,3-d]pyrimidin-3(2H)-yl]cyclohexyl}imidazo[1,2-a]pyridine-2-carboxamide]"
2,631,"O=C(N[C@H]1CC[C@@H](n2c(=O)c3cc(F)cnc3n(C3CCCC3)c2=O)CC1)c1cn2ccccc2n1 [Example 7, N-[cis-4-(1-cyclopentyl-6-fluoro-2,4-dioxo-1,4-dihydropyrido[2,3-d]pyrimidin-3(2H)-yl)cyclohexyl]imidazo[1,2-a]pyridine-2-carboxamide]"

# Molecular target: T1, recombinant Human Phosphodiesterase B2 (PDE4B2)
# Test: Human Phosphodiesterase B2 Radiometric Assay (yttrium silicate SPA beads, [3H]cyclic AMP)
# Format: biochemical
# Conditions: recombinant human PDE4B2, radiometric SPA assay, 8 nM [3H]cyclic AMP; read-out: PDE4B2 pIC50 (converted)
# Method in brief: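 Read-out is scintillation proximity: yttrium silicate beads (with 18 mM ZnSO4, added to stop the reaction) bind 5′AMP formed from 8 nM [3H]cAMP over 20 min. Beforehand, compound and 0.1 mg/mL enzyme were preincubated 30 min at 30 °C in pH 7.5 HEPES buffer with MgCl2, EGTA and Brij 35; pIC50 values were curve-fitted.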
row,IC50 [pM],Compound
1,6.31,"O=C(N[C@H]1CC[C@@H](n2c(=O)c3cc(F)cnc3n(-c3cccc(-c4ccc(CN5CCNCC5)cc4Br)c3)c2=O)CC1)c1cn2cc(F)ccc2n1 [Example 229, N-{cis-4-[1-[2′-Bromo-4′-(piperazin-1-ylmethyl)biphenyl-3-yl]-6-fluoro-2,4-dioxo-1,4-dihydropyrido[2,3-d]pyrimidin-3(2H)-yl]cyclohexyl}-6-fluoroimidazo[1,2-a]pyridine-2-carboxamide]"
2,12.6,"CN(C)C(=O)CN1CCN(Cc2ccc(-c3cccc(-n4c(=O)n([C@H]5CC[C@@H](NC(=O)c6cn7c(n6)CCCC7)CC5)c(=O)c5cc(F)cnc54)c3)cc2)CC1 [Example 137, N-{cis-4-[1-[4′-({4-[2-(dimethylamino)-2-oxoethyl]piperazin-1-yl}methyl)biphenyl-3-yl]-6-fluoro-2,4-dioxo-1,4-dihydropyrido[2,3-d]pyrimidin-3(2H)-yl]cyclohexyl}-5,6,7,8-tetrahydroimidazo[1,2-a]pyridine-2-carboxamide]"
3,126,CNCCNCc1ccc(-c2cc(C)cc(-n3c(=O)n([C@H]4CC[C@@H](NC(=O)c5cn6cc(F)ccc6n5)CC4)c(=O)c4cc(F)cnc43)c2)cc1 [Example 231]
4,79.4,"CN1CCN(Cc2cc(O)ccc2-c2cccc(-n3c(=O)n([C@H]4CC[C@@H](NC(=O)c5cn6cc(F)ccc6n5)CC4)c(=O)c4cc(F)cnc43)c2)CC1 [Example 71, 6-fluoro-N-{cis-4-[6-fluoro-1-{4′-hydroxy-2′-[(4-methylpiperazin-1-yl)methyl]biphenyl-3-yl}-2,4-dioxo-1,4-dihydropyrido[2,3-d]pyrimidin-3(2H)-yl]cyclohexyl}imidazo[1,2-a]pyridine-2-carboxamide trifluoroacetate salt]"
5,794,"CC(C)N1CCN(Cc2ccc(-c3cccc(-n4c(=O)n([C@H]5CC[C@@H](NCc6c(C(F)(F)F)nn(C)c6Cl)CC5)c(=O)c5cc(F)cnc54)c3)cc2)CC1 [Example 262, 3-[cis-4-({[5-chloro-1-methyl-3-(trifluoromethyl)-1H-pyrazol-4-yl]methyl}amino)cyclohexyl]-6-fluoro-1-{4′-[(4-isopropyl-piperazin-1-yl}methyl]biphenyl-3-yl}pyrido[2,3-d]pyrimidine-2,4(1H,3H)-dione]"
